Data: ChEMBL document CHEMBL4808238, “Small Molecule Inhibitors of KRAS Mutant as a Therapeutic Strategy for the Treatment of Cancer” (ACS Med Chem Lett, 2021)

Biological target: GTPase KRas (Homo sapiens, UniProt P01116, G12C)
Assay: Inhibition of biotinylated KRAS G12C mutant (unknown origin) assessed as inhibition of SOS-catalyzed nucleotide exchange preincubated for 60 mins followed by addition of human recombinant SOS protein and unlabeled GTP and measured after 60 mins by TR-FRET analysis

Chain of GTPase KRas (P01116 whole entry G12C): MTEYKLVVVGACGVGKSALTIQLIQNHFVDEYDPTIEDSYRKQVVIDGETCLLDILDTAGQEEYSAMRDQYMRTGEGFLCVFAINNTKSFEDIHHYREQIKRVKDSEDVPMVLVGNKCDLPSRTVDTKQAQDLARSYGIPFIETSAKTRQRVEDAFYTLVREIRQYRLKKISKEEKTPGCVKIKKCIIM

C=CC(=O)N1CCN(c2cc(C(=O)NC[C@H]3CCCN3)nc3c2CCN(c2cccc4cccc(C)c24)C3)C[C@@H]1CC#N and C=CC(=O)N1CCN(c2cc(C(=O)NCC3CCCCN3)nc3c2CCN(c2cccc4cccc(C)c24)C3)C[C@@H]1CC#N (stereo partly specified) are within 1.5-fold of each other in IC50: 6.2 nM for the first, 8.3 nM for the second.

Compared with C=CC(=O)N1CCN(c2cc(C(=O)N[C@H](C)CN3CC(C)(O)C3)nc3c2CCN(c2cccc4cccc(C)c24)C3)C[C@@H]1CC#N, C=CC(=O)N1CCN(c2cc(C(=O)NC(C)CN3CCC(C)(O)C3)nc3c2CCN(c2cccc4cccc(C)c24)C3)C[C@@H]1CC#N (stereo in doubt; 75) is 3.3-fold higher in IC50: 2.2 nM for the first, 7.2 nM for the second. The first is the more potent here.

C=CC(=O)N1CCN(c2cc(C(=O)NC3(C)CCCNC3)nc3c2CCN(c2cccc4cccc(C)c24)C3)C[C@@H]1CC#N (stereo partly specified) and C=CC(=O)N1CCN(c2cc(C(=O)NC3(CC)CCNC3)nc3c2CCN(c2cccc4cccc(C)c24)C3)C[C@@H]1CC#N (stereo partly specified) are within 1.5-fold of each other in IC50: 5.4 nM for the first, 4.5 nM for the second.

First: C=C(F)C(=O)N1CCN(c2cc(C(=O)N[C@H](C)CN(C)C)nc3c2CCN(c2cccc4cccc(C)c24)C3)C[C@@H]1CC#N
Second: C=C(F)C(=O)N1CCN(c2cc(C(=O)NC(C)CN3CCC(C)(O)C3)nc3c2CCN(c2cccc4cccc(C)c24)C3)C[C@@H]1CC#N (stereo partly specified)
The IC50 of the first is 1.7-fold higher: 8.3 nM for the first, 5 nM for the second.

Going from C=CC(=O)N1CCN(c2cc(C(=O)N[C@@H]3CCC[C@H]3N(C)C)nc3c2CCN(c2cccc4cccc(C)c24)C3)C[C@@H]1CC#N to C=CC(=O)N1CCN(c2cc(C(=O)NC(C)CN3CCC(C)(O)C3)nc3c2CCN(c2cccc4cccc(C)c24)C3)C[C@@H]1CC#N (stereo in doubt; 76), the IC50 rises from 1 nM to 6.2 nM (6.2-fold).

For C=CC(=O)N1CCN(c2cc(C(=O)N[C@H](C)CN(C)C)nc3c2CCN(c2c(Cl)c(C)cc4[nH]ncc24)C3)C[C@@H]1CC#N, the IC50 was 0.9 nM.
